In patent publication US20100042137A1, “ACUPUNCTURE AND ACUPRESSURE THERAPIES” (priority 2008, published 2010):
Where two headings read alike, the source gives them in different places.

Key:
Patients with Arthritis = assay: Treatment of patients with arthritis by injection at or near acupuncture points; pain level x/10; format: in vivo, human
Source text: Treatment of Patients with Arthritis
(i) A patient presented with a 5/10 pain from severe rheumatoid arthritis.
(ii) A patient presented with an 8/10 pain from severe rheumatoid arthritis.
(iii) A patient presented with 8/10 pain from severe rheumatoid arthritis with diffuse joint stiffness, swelling and tenderness.
(i) A patient presented with a pain level of 10/10 from cervical strain due to seronegative rheumatoid arthritis.
(ii) A patient presented with a 7.5/10 pain globally from a seronegative arthritis (unspecified).
A patient presented with a 5/10 pain from bilateral post-traumatic subtalar arthritis.

[1] = tested on: Patients with Back, Shoulder, Leg Pain; assay: Treatment of patients with back, shoulder, leg pain by injection; pain level x/10; format: in vivo, human
Source text: (iv) A patient presented initially with 9/10 mechanical low back pain.
(v) A patient with an L5 radiculopathy complained of a 6/10 low back pain which was unrelieved by trigger point injections, sacroiliac injections and epidurals.
(vii) A patient presented with a 8/10 back pain from lumbar facet arthropathy.
(viii) A patient presented with an 8/10 back pain with radiation down leg from lumbar radiculopathy.
(xii) A patient presented with a 9/10 low back pain and 8/10 shoulder and neck pain.
(ii) A patient presented with a 4/10 pain due to sacroiliac strain.
(ii) A patient presented with a 4/10 neck pain from cervical degenerative disc disease.
(iii) A patient presented with a 9/10 pain globally from cervical spondylotic myelopathy.

[2] = tested on: Patients with Multiple Indications; assay: Treatment of patients with multiple indications by injection; pain level x/10; format: in vivo, human; details: for Pain level After: 2 cc injected
human patients [3] = assay: Treatments with saline; pain level x/10; format: in vivo; details: general observation in parenthesis
Source text: (i) A patient presented with a 2/10 rotator cuff tendinopathy.
(ii) 5/10 sacroiliac strain.
(iv) A patient presented with a 6/10 pain globally from severe systemic lupus erthymatosis (SLE).
(v) A patient presented with a 7/10 pain right medial knee pain from pes anserine bursitis.

human patients [4] = assay: Treatment with epinephrine or Restylane at specific influential points, also in combination with magnets; pain level x/10; format: in vivo
Source text: (i) A patient presented with a 6/10 left ankle pain from gout.
(ii) A patient presented with an 8/10 pain and stiffness from Parkinson's disease.
(iii) A patient presented with a 5/10 neck pain and stiffness.
(iv) A patient presented with a 5/10 neck and upper back pain from syringomyelia.
(v) A patient presented with a 5.8/10 right shoulder pain from rotator cuff tendinopathy.
(vi) A patient presented with a 2/10 shoulder pain from a rotator cuff tendinopathy.
(vii) A patient presented with a 10/10 frontal sinus headache which was present for over 1 week.
(viii) A patient presented with a 4/10 tension headache over the temples and neck with photophobia on which is present 2-3 times a week on average.
(ix) A patient presented with 10/10 pain from bilateral tarsal tunnel syndrome.
(x) A patient with chronic radicular left leg pain 6/10.
(i) A patient presented with a 5/10 pain globally especially in the low back.
(ii) A patient presented with a 5/10 pain in the mid back who had never had acupuncture before.
(iii) A patient presented with a 10/10 pain in an amputee with a compound fracture of their femur.
(i) A patient presented with common peroneal neuropathy with a pain level of 9/10.
(ii) Patient with 9/10 back pain from sacroilitis.

human patients [5] = tested on: human patients
human patients [6] = tested on: human patients; remark: listed apart in the source
Source text: (i) 10/10 pain from sacroilitis.
(ii) 5/10 pain from trochanteric bursitis.
(iii) 7/10 pain from Morton's neuroma.
(iv) 5/10 pain from lateral epicondylitis.

CCN(CC)CC(=O)Nc1c(C)cccc1C [lidocaine]
pain after injection (Patients with Arthritis; 6/10 shoulder pain (glenohumeral arthritis) and 7/10 low back pain (lumbar stenosis), 2 cc into GH joints bilaterally): complete pain relief | pain after injection (Patients with Arthritis; 9/10 elbow pain (radiohumeral arthritis) and 10/10 mechanical low back pain, 2 cc into GH joints near Lu 1 bilaterally): complete relief | pain after injection (Patients with Arthritis; bilateral post-traumatic subtalar arthritis, 5/10 before, 2 cc bilaterally s.c. over GH joints near Lu 1): disappearance of all pain | pain level after injection (Patients with Arthritis; cervical strain due to seronegative rheumatoid arthritis, 10/10 before, 1 cc bilaterally s.c. over GH joints): 4/10 | pain after injection (Patients with Arthritis; right glenohumeral osteoarthritis 9/10 and 8/10 low back pain (sacroiliac strain), 2 ccs bilaterally into GH joints, agent not given, heading: Injection of Lidocaine): total relief | duration of pain relief (Patients with Arthritis; same patient as E13): 3 days | duration of pain relief (Patients with Arthritis; same patient as E15): 1 week | pain level after injection (Patients with Arthritis; same patient, 4/10 before, another 2 cc lidocaine bilaterally s.c. over GH joints): 3/10 | pain after injection (Patients with Arthritis; seronegative arthritis (unspecified), 7.5/10 globally before, 2 cc bilaterally s.c. over GH joints): disappearance of all pain | pain after injection (Patients with Arthritis; severe RA, s.c. over GH joints bilaterally): resolution of all pain | pain after injection (Patients with Arthritis; severe rheumatoid arthritis, 5/10 before, 2 cc bilaterally s.c. over glenohumeral (GH) joints near Lu 1): disappearance of all pain and return of mobility | pain level after injection ([1]; 4/10 neck pain from cervical degenerative disc disease, 2 cc bilaterally s.c. over GH joints): 2/10 | pain after injection ([1]; 4/10 pain due to sacroiliac strain, 2 cc bilaterally s.c. over GH joints): disappearance of all pain | pain after injection ([1]; 5/10 back pain due to rupture of the annulus, 2 cc 1% lidocaine into GH joints bilaterally): no relief | pain level after injection ([1]; 6/10 mechanical low back pain before, 2 cc bilaterally into GH joints): about 3/10 | pain relief ([1]; 6/10 mechanical low back pain, 2 cc bilaterally into GH joints): about 50% | pain level after injection ([1]; 7/10 low back pain due to SI strain before, 2 cc into GH joints bilaterally): 4/10 | pain level after injection ([1]; 8/10 back pain with radiation down leg, lumbar radiculopathy, 2 cc bilaterally s.c. over GH joints): 1/10 | pain level after injection ([1]; 9/10 mechanical low back pain before, 2 cc bilaterally into GH joints, agent not given, heading: Injection of Lidocaine): 4/10 | pain after injection ([1]; lumbar facet arthropathy, s.c. over GH joints bilaterally): resolution of pain | follow-up of pain relief ([1]; same patient as E28): still pain free one week later | other effects stated by patient ([1]; same patient as E34): felt more awake, alert and had a sense of well-being | shoulder pain level after injection ([2]; 6/10 bilateral shoulder pain, glenohumeral arthritis, 4 ccs into GH joints bilaterally): 1/10 | pain relief ([2]; 6/10 shoulder pain (bilateral rotator cuff tendinopathy) and 6/10 low back pain (lumbar spinal stenosis), 2 cc bilaterally into GH joints): about 50% | pain level after injection, right side of the body ([2]; 10/10 post surgical pain from tracheostomy and 6/10 coccygodynia, 2 cc s.c. bilaterally over GH joint): 2/10 | Pain level After ([2]; Cervical spondylotic myelopathy, Before 9/10): 1/10 | Pain level After ([2]; Chronic pelvic pain of non menstrual origin, Before 6/10): 0 | Pain level After ([2]; Dermatomyositis, Before 6/10): 2/10 | Pain level After ([2]; Knee pain, Before 5/10): 0 | Pain level After ([2]; Lumbar radiculopathy, herniated disk and scatia, Before 8/10): 0 | Pain level After ([2]; Multiple Sclerois with pain in legs, Before 7/10): 0 | Pain level After ([2]; Peptic Ulcer with gnawing epigastric pain, Before 8/10): 0 | Pain level After ([2]; Plantar Fasciitis, Before 6/10): 0 | Pain level After ([2]; Reflex sympathetic dystophy, Before 6/10): 0 | other effects reported by patient ([2]; same patient): felt more awake, had a better mood, and could breathe easier | pain level after injection ([2]; same patient as E44, 6/10 before): 3/10 | low back pain level after injection ([2]; same patient, 6/10 low back pain, lumbar spinal stenosis, 4 ccs): 2/10 | pain after further injection ([2]; same patient, another 2 cc over only the left GH joint): disappearance of all pain | effect of unilateral injection over the GH joint (human patients [3]): seems to provide analgesia on the opposite side of the body | pain after injection (human patients [4]; 9/10 back pain from sacroilitis, 0.1 cc lidocaine 2% bilaterally s.c. over sacroiliac joints (B 47, B 23)): disappearance of all back pain | pain after therapeutic magnets put over the sites of injection (human patients [4]; same patient): again disappeared | time after which the pain started to come back (human patients [4]; same patient): 2 days | drooling after injection (human patients [5]; excessive drooling (sialorrhea), 0.1 cc lidocaine 2% near Li 4): cessation of drooling | effect on sleepiness (human patients [5]; narcolepsy, falling asleep in the office, 0.1 cc 2% lidocaine near Li 4): noticeably woke patient up | duration of cessation of drooling (human patients [5]; same patient): 2 weeks | duration of effect (human patients [5]; same patient): lasted throughout the day | pain after injection (human patients [6]; 5/10 pain from lateral epicondylitis, 0.1 cc 2% lidocaine s.c. over lateral epicondyle): complete pain relief | pain after injection (human patients [6]; 5/10 pain from trochanteric bursitis, 0.1 cc 2% lidocaine bilaterally s.c. over trochanteric bursae): complete pain resolution | symptoms after injection (human patients [6]; 7/10 pain from Morton's neuroma, 0.1 cc 2% lidocaine s.c. on dorsal foot between metatarsal heads): complete resolution of symptoms | pain after injection (human patients [6]; 10/10 pain from sacroilitis, 0.1 cc 2% lidocaine s.c. over the sacroiliac joints): immediate pain cessation and return to full mobility | duration of complete pain relief (human patients [6]; same patient): 1 days | duration of complete pain resolution (human patients [6]; same patient): 3 weeks | duration of complete resolution of symptoms (human patients [6]; same patient): 2 weeks | pain relief still complete at time later (human patients [6]; same patient, magnets put over the two injection sites afterwards): ≥ 10 days

C[C@]12C=CC(=O)C=C1CC[C@H]1[C@@H]3C[C@@H](O)[C@](O)(C(=O)CO)[C@@]3(C)C[C@H](O)[C@@]12F [triamcinolone]
pain after injection ([2]; cervical stenosis 8/10 and lumbosacral strain 7/10, triamcinolone only into GH joints bilaterally): complete relief
